“Also recorded” adds a separate entry of the source. Where two headings read alike, the source gives them in different places.
What was measured:
[1] = test system: patients with Alzheimer's disease or patients with cerebrovascular dementia; settings: reported in literature; cited from earlier work
[2] = Crystal polymorph screening by the heating method; type: physicochemical; settings: open vial, oven 60° C. or 80° C.
Method: 30 mg of the compound of Synthesis Example 12 was placed in an open vial, and incubated in an oven heated to 60° C. or 80° C. for 19 hours or for 91 hours. After completion of the incubation, XRPD analysis and polarizing microscope observation were performed. FIG. 26 and FIG. 27 show the results.

[3] = Approximate solubility by manual dilution and visual observation; type: physicochemical; settings: 25° C.; for solubility: thermodynamic from solid, read-out: Solubility at 25° C. S
Method: The approximate solubility of the calcium salt in different solvents at 25° C. was tested by manual dilutions in combination with visual observation.

**Q.** Which “Effect on arousal, mood, semantic memory in patients” value [1] does the source give for `NC(=O)[C@@H]1CCCN1C(=O)[C@H](Cc1cnc[nH]1)NC(=O)[C@@H]1CCC(=O)N1` [TRH] here?
**A.** Its value is “improve the level of arousal, mood, semantic memory”.

**Q.** What does the source list for `CCCCCC[C@@H](CCC)C(=O)[O][Ca][O]C(=O)[C@@H](CCC)CCCCCC` [Compound of Synthesis Example 12, calcium (R)-2-propyloctanoate (S)-2-propyloctanoate]?
**A.** Changes in morphology or XRPD pattern on heating ([2]; 19 hours): no changes in morphology or XRPD pattern were observed; Morphological changes on heating ([2]; 91 hours): no morphological changes of the compound were observed; solubility ([3]; 2-propanol (printed 2-Promanol), organic solvent or mixture, 2-Promanol): > 210 mg/mL; Solubility in words ([3]; different solvents): poorly soluble in water; also recorded: dissolved in ethanol, 2-propanol, MtBE, EA, and THF; solubility ([3]; organic solvent or mixture, Acetone): < 1.7 mg/mL; solubility ([3]; organic solvent or mixture, CAN): < 1.5 mg/mL; solubility ([3]; organic solvent or mixture, EA): > 199 mg/mL; solubility ([3]; organic solvent or mixture, Ethanol): > 185 mg/mL; solubility ([3]; organic solvent or mixture, MEK): 94.4 to 189 mg/mL; solubility ([3]; organic solvent or mixture, MtBE): > 215 mg/mL; solubility ([3]; organic solvent or mixture, THF): > 198 mg/mL; solubility ([3]; Water): < 1 mg/mL

Source: patent publication US10828303B2, “Composition comprising combination of TRH analog with arundic acid, and pharmaceutically acceptable salt of arundic acid” (Brivention Pharmaceutical (Shanghai) Inc., priority 2016, dated 2020)
